Measured values published in US20250002470A1, “NITROGEN-CONTAINING COMPOUND, PREPARATION METHOD THEREFOR AND APPLICATION THEREOF” (ZHEJIANG AIXPLORER BIOTECH CO., LTD., priority 2021, published 2025).

Legend:
[1] = biological target: hERG potassium channel (Homo sapiens, UniProt Q12809); test: Whole-cell patch-clamp (QPatch) of hERG current in HEK293 cells stably expressing hERG; assay type: cell-based
Protocol: In this study, a whole-cell patch-clamp technique was used to study the inhibitory effect of compounds on hERG potassium channels and to evaluate the risk of ventricular repolarization toxicity.
The HEK293 cell line stably expressing the hERG potassium channel cells was purchased from Creacell, Inc. (Cat. No. A-0320).
The HEK293 cell line that can stably express the hERG potassium channel, was cultured in DMEM medium containing 10% fetal bovine serum and 0.8 mg/mL G418 at 37° C. and 5% carbon dioxide.
Before the test, the cells were separated with TrypLET Express, centrifuged after adding medium to terminate digestion, resuspended the cell count, adjusted the cell density to 2-3×10^6 cells/mL, and then lightly mixed the cells on a room temperature equilibration shaker for 15-20 min.
Electrophysiological assays were performed using a fully automated patch-clamp QPatch 48 X (Sophion) device. The prepared cells were placed on a centrifuge on the Qpatch bench, the cells were washed using multiple centrifugation/suspension methods, and the cell culture medium was replaced with extracellular fluid. Remove an MTP-96 plate and place it in the location of the MTP source. Remove the QPlate chip and subsequently place the QPlate at the Qplate source location. The robotic arm scans the MTP-96 board and the QPlate chip barcode and grabs it to the measuring station. Draw the intracellular and external fluid from the liquid pool and add them to the intracellular fluid pool, cell and test cell pool of the QPlate chip, respectively. At the measuring station, all measuring sites on the QPlate undergo initial quality control. The quality control process includes aspirating the cell suspension from the cell vessel of the centrifuge and positioning the cells to the chip wells via a pressure controller to establish a high-resistance seal and create a whole-cell recording pattern.
The voltage stimulation protocol for whole-cell patch-clamp recording of whole-cell hERG potassium currents is as follows: the cell membrane voltage clamps at −80 mV when a whole-cell closure is formed. The clamping voltage is depolarized from −80 mV to −50 mV for 0.5 s (as a leakage current detection), then steps to 30 mV for 2.5 s, and then quickly recovers to −50 mV for 4 s to excite the tail current of the hERG channel. The data were collected repeatedly every 10 s to observe the effect of the drug on the hERG tail current. −50 mV stimulation at 0.5 s was used as the leakage current detection. The test data is collected by Qpatch and stored in the connected service station.
First, the current after the effect of each drug concentration and the blank control current are normalized 0, and then the inhibition rate corresponding to each drug concentration is calculated.
Calculate the mean and standard error for each concentration and calculate the semi-inhibitory concentration for each compound using the following Formula:
Y=Bottom+(Top−Bottom)/(1+10^((LogIC50−X)*HillSlope)) The above Formula was used to fit the dose-dependent effect nonlinearly, where C represents the test substance concentration, IC50 is the semi-inhibitory concentration, and h represents the Hill coefficient. Curve fitting and IC50 calculations were performed using Graphpad software.

[2] = biological target: T1, NLRP3 (Homo sapiens, UniProt Q96P20); test: IL-1β (interleukin-1β) secretion in IFN-γ-differentiated, LPS/ATP-stimulated THP-1 cells (half inhibition rate of NLRP3); assay type: cell-based; conditions: IFN-γ 25 ng/mL, LPS 50 ng/mL, ATP 5 mM
T1 construct: endogenous in cells; host or cells: THP-1 cells (IFN-γ differentiated, LPS primed, ATP stimulated)
T1 sequence (Q96P20 whole entry): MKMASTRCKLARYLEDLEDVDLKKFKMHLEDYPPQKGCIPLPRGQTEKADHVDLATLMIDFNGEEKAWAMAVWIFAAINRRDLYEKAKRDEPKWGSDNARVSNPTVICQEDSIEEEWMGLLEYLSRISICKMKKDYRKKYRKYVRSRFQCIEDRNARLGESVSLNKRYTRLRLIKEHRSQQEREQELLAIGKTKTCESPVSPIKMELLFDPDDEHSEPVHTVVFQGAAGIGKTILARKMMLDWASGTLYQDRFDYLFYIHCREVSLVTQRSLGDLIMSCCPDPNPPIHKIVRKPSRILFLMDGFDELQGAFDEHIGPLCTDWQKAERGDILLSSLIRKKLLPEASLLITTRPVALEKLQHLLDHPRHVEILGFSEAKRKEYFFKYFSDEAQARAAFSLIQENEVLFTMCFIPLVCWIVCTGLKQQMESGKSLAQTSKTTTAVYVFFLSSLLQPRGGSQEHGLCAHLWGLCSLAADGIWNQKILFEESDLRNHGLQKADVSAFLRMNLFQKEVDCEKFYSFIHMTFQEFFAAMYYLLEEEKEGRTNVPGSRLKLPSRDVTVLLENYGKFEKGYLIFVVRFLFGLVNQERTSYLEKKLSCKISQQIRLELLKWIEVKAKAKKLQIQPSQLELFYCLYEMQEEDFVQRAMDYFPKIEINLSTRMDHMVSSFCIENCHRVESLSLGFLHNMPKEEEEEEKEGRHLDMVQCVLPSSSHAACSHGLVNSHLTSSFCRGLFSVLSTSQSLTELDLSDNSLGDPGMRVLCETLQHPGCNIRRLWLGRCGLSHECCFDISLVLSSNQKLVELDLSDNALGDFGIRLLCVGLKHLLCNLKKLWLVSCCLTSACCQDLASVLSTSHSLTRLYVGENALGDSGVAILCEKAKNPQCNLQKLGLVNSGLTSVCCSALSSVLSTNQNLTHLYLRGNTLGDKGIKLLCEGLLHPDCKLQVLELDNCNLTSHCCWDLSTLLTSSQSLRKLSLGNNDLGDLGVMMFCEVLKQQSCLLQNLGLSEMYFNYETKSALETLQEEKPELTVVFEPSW
Protocol: Remove THP-1 cells from liquid nitrogen and place in a 37° C. water bath until ice melt. Add the cells to 5 mL of warm cell culture medium and centrifuge at 1,000 rpm for 5 min. Discard the supernatant and resuspend and culture in a new cell culture medium.
THP-1 cells are cultured in the culture medium and passaged every 2-3 days.
2.1.1 Add 100 μL of cell suspension per well to the cell plate and incubate the cell plate in a 37° C., 5% CO2 incubator for 24 hours.
2.2.1 Discard the supernatant of IFN-γ differentiation after differentiation treatment. Add 100 μL of serum-free medium containing LPS (final concentration of 50 ng/mL) to the cell plate. The cell plates were incubated in a 37° C., 5% CO2 incubator for 4 h.
Place the cell plate in an incubator at 37° C. and 5% CO2 for 1 hour.
2.2.3 Add 20 μL of 6×ATP per well according to the plate map (final concentration 5 mM) and incubate the cell plate in a 37° C., 5% CO2 incubator for 1 h. Collect the supernatant (60 μL) and store at −20° C.
The capture antibody mAb Mt175 is diluted to 2 μg/mL with PBS (1:250) and added to the cell plate at 15 μL per well. Keep the plate overnight at 4° C.
2.4.1 Discard the coated antibody and wash 4 times with PBST.
2.4.3 Discard the blocking buffer and wash 4 times with PBST.
2.4.4 Add 25 μL of 2.2.3 collected supernatant sample per well and incubate for 2 h at room temperature.
2.4.5 Discard the samples and wash 4 times with PBST.
2.4.6 Add mAb7P10-biotin (concentration 0.5 ug/mL) to blocking buffer, add 15 μL per well to the cell plate, and incubate for 1 hour at room temperature.
2.4.7 Discard the antibody and wash 4 times with PBST.
2.4.8 Streptavidin-HRP was diluted 1:1000 in blocking buffer, 15 μL per well was added to the cell plate, and incubated for 1 hour at room temperature.
2.4.9 Discard streptavidin-HRP and wash 4 times with PBST.
2.4.10 Add 25 μL of HRP substrate (Surmodics-TMBW-0100-01) per well and incubate the cell plate until a blue product appears.
2.4.11 Add 25 μL of stop solution (Surmodics-LSTP-0100-01) per well, and the blue product turns yellow.
2.4.12 Read the cell plate at 450 nm with a microplate reader.

[3] = In vivo pharmacokinetic evaluation in mice (IV and PO); conditions: CD-1 mice; for AUC / clearance / half-life / Vd / Cmax: mouse, plasma; for Vd: read-out: Vss
Protocol: CD-1 mice, after fasting overnight (free drinking), are divided into tail vein (IV) and gavage administration (PO) groups. The tail vein administration group collected 0.1 mL of blood from the orbital venous plexus before administration and 5 minutes, 15 minutes, 0.5 hours, 1 hour, 2 hours, 4 hours, 8 hours, 12 hours, and 24 hours after administration, and sample centrifugation at 4° C. for 5 minutes, and stored at −70° C. for testing. […] The plasma parent drug concentration was determined by LC-MS/MS.

Chain of hERG potassium channel (Q12809 whole entry): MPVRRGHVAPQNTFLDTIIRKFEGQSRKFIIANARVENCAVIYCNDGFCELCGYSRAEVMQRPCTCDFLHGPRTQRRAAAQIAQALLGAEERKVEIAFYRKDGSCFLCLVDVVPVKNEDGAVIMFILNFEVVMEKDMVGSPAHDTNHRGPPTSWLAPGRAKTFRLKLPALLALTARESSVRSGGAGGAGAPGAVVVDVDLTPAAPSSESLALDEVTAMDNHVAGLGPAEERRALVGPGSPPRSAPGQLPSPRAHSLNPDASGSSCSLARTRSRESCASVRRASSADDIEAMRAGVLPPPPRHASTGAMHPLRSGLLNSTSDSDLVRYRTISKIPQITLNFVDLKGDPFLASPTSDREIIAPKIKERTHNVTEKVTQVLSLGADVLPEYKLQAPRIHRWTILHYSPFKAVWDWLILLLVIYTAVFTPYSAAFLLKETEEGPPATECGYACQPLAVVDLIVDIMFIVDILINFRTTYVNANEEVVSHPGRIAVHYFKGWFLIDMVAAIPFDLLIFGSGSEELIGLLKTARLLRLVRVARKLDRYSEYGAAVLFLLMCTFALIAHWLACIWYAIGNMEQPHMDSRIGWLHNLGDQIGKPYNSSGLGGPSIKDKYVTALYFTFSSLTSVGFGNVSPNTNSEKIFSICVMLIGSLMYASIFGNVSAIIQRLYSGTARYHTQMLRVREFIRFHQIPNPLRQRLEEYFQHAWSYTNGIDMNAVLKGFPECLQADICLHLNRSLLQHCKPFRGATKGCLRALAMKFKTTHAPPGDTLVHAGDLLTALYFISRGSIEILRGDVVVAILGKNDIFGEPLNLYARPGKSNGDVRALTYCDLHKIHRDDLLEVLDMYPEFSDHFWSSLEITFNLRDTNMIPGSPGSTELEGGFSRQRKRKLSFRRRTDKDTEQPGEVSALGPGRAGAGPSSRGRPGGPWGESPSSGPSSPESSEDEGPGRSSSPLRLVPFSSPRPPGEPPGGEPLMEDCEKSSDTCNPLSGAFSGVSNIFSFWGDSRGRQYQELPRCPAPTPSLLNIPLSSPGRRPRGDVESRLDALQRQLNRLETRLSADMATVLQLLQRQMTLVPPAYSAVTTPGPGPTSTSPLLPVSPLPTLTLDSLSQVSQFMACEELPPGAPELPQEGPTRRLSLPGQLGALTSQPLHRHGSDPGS

Compound	IC50 [2] [nM]	IC50 [1] [nM]	other results
Oc1cc(C(F)(F)F)ccc1-c1nnc(N[C@@H]2CCCC[C@H]2O)c2c(F)cccc12 [Embodiment 135]	5.1	> 30000	–
Cc1nc(N[C@@H]2CCCN([C@H](C)CO)C2)nnc1-c1ccc(C(F)(F)F)cc1O [Embodiment 148]	14.4	> 30000	F ([3]; PO, 20 mg/kg): 95.2%; AUC ([3]; IV, 3 mg/kg): 4750 ng·h/mL; clearance ([3]; IV, 3 mg/kg): 10.5 mL/min/kg; half-life ([3]; IV, 3 mg/kg): 4.17 h; Vd ([3]; IV, 3 mg/kg): 3 L/kg; AUC ([3]; PO, 20 mg/kg): 30100 ng·h/mL; Cmax ([3]; PO, 20 mg/kg): 7730 ng/mL; half-life ([3]; PO, 20 mg/kg): 3.68 h
CC(CO)N1CCC[C@@H](Nc2nnc(-c3ccc(C(F)(F)F)cc3O)c3cnccc23)C1 (some centres unmarked) [Embodiment 127]	3.5	> 30000	–
Cc1cc(N[C@@H]2CCCN(C)C2)nnc1-c1ccc(C(F)(F)F)cc1O [Comparison 3]	–	< 10000	–
CC(CO)N1CCC[C@@H](Nc2nnc(-c3ccc(C(F)(F)F)cc3O)c3ccncc23)C1 (some centres unmarked) [Embodiment 126]	3.9	> 30000	–
Cc1nc(N[C@@H]2CCCN(CC(C)(C)O)C2)nnc1-c1ccc(C(F)(F)F)cc1O [Embodiment 133]	6.6	> 30000	–
Oc1cc(C(F)(F)F)ccc1-c1nnc(N[C@@H]2CCCC[C@H]2O)c2ccccc12 [Embodiment 64]	4.7	> 30000	–
Cc1cc(C)c(-c2cnc(N[C@@H]3CCCN(CCO)C3)nn2)c(O)c1 [Embodiment 2, (R)-2-(3-((1-(2-hydroxyethyl)piperidin-3-yl)amino)-1,2,4-triazin-6-yl)-3,5-dimethylphenol]	40.2	> 30000	–
Cc1cc(C(F)(F)F)cc(O)c1-c1cnc(N[C@@H]2CCCN(CCO)C2)nn1 [Embodiment 48, (R)-2-(3-((1-(2-hydroxyethyl)piperidin-3-yl)amino)-1,2,4-triazin-6-yl)-3-methyl-5-(trifluoromethyl)phenol]	9.1	> 30000	–
OCCN1CCC[C@@H](Nc2nnc(-c3ccc(Cl)cc3O)c3ccc(F)cc23)C1 [Embodiment 153]	2.4	> 30000	–
Cc1nc(N[C@@H]2CCCN(C(C)CO)C2)nnc1-c1ccc(C(F)(F)F)cc1O (stereo partly drawn) [Embodiment 43, 2-(3-(((3R)-1-(1-hydroxypropyl-2-yl)piperidin-3-yl)amino)-5-methyl-1,2,4-triazin-6-yl)-5-(trifluoromethyl)phenol]	6.5	> 30000	–
Cc1nc(N[C@@H]2CCCN(C[C@@H](C)O)C2)nnc1-c1ccc(C(F)(F)F)cc1O [Embodiment 150]	9.9	> 30000	–
C[C@]1(O)C[C@@H](Nc2nnc(-c3ccc(C(F)(F)F)cc3O)c3ccc(F)cc23)C1 [Embodiment 139]	1.9	> 30000	–
OCCN1CCC[C@@H](Nc2nnc(-c3ccc(Cl)cc3O)c3ccccc23)C1 [Embodiment 155]	2.5	> 30000	–
Oc1cc(C(F)(F)F)ccc1-c1nnc(N[C@@H]2CCCC[C@H]2O)c2ccc(F)cc12 [Embodiment 137]	2	> 30000	–
CC(CO)N1CCC[C@@H](Nc2nnc(-c3ccc(C(F)(F)F)cc3O)c3occc23)C1 (some centres unmarked) [Embodiment 131]	7.3	> 30000	–
Cc1cc(C(F)(F)F)cc(O)c1-c1cnc(N[C@@H]2CCC[C@@H](O)C2)nn1 [Embodiment 39]	–	> 30000	–
C[C@]1(O)C[C@@H](Nc2nnc(-c3ccc(C(F)(F)F)cc3O)c3cnccc23)C1 [Embodiment 78]	2.8	> 30000	–
Cc1nc(N[C@H]2C[C@@](C)(O)C2)nnc1-c1ccc(C(F)(F)F)cc1O [Embodiment 37, 2-(3-(((cis)-3-hydroxy-3-methylcyclobutyl)amino)-5-methyl-1,2,4-triazin-6-yl)-5-(trifluoromethyl)phenol]	27.3	> 30000	–

Further compounds by falling IC50 [2], results first:

IC50 [2] [nM]	Compound	IC50 [1] [nM]	other results
12.4	Cc1cc(Cl)cc(O)c1-c1cnc(N[C@@H]2CCCC[C@H]2O)nn1 [Embodiment 35, 5-Chloro-2-(3-(((1R,2R)-2-hydroxycyclohexyl)amino)-1,2,4-triazin-6-yl)-3-methylphenol]	> 30000	–
12.4	Cc1cc(C(F)(F)F)cc(O)c1-c1cnc(N[C@H]2C[C@@](C)(O)C2)nn1 [Embodiment 40, 2-(3-(((cis)-3-hydroxy-3-methylcyclobutyl)amino)-1,2,4-triazin-6-yl)-3-methyl-5-(trifluoromethyl)phenol]	> 30000	–
10.4	Cc1nc(N[C@@H]2CCCN(CCO)C2)nnc1-c1ccc(Cl)cc1O [Embodiment 152]	> 30000	–
7.4	Cc1cc(C)c(-c2cnc(N[C@@H]3CCCN(C4CC4)C3)nn2)c(O)c1 [Embodiment 6, (R)-2-(3-((1-cyclopropylpiperidin-3-yl)amino)-1,2,4-triazin-6-yl)-3,5-dimethylphenol]	> 30000	–
5.3	Oc1cc(C(F)(F)F)ccc1-c1nnc(N[C@@H]2CCCC[C@H]2O)c2ncccc12 [Embodiment 70, 2-(8-(((1R,2R)-2-hydroxycyclohexyl)amino)pyrido[2,3-d]pyridazin-5-yl)-5-(trifluoromethyl)phenol]	> 30000	–
4.6	Cc1cc(C(F)(F)F)cc(O)c1-c1cnc(N[C@@H]2CCCN(C(C)CO)C2)nn1 (stereo partly drawn) [Embodiment 47, 2-(3-(((3R)-1-(1-hydroxypropyl-2-yl)piperidin-3-yl)amino)-1,2,4-triazin-6-yl)-3-methyl-5-(trifluoromethyl)phenol]	> 30000	–
1.9	CC(CO)N1CCC[C@@H](Nc2nnc(-c3ccc(C(F)(F)F)cc3O)c3ccoc23)C1 (some centres unmarked) [Embodiment 130]	> 30000	–
0.4	Cc1nc(N[C@@H]2CCCN(CCO)C2)nnc1-c1ccc(C(F)(F)F)cc1O [Embodiment 44, (R)-2-(3-((1-(2-hydroxyethyl)piperidin-3-yl)amino)-5-methyl-1,2,4-triazin-6-yl)-5-(trifluoromethyl)phenol]	> 30000	F ([3]; PO, 20 mg/kg): 95.3%; AUC ([3]; IV, 3 mg/kg): 2950 ng·h/mL; clearance ([3]; IV, 3 mg/kg): 16.8 mL/min/kg; half-life ([3]; IV, 3 mg/kg): 4.02 h; Vd ([3]; IV, 3 mg/kg): 4.35 L/kg; AUC ([3]; PO, 20 mg/kg): 18800 ng·h/mL; Cmax ([3]; PO, 20 mg/kg): 4530 ng/mL; half-life ([3]; PO, 20 mg/kg): 3.62 h
